According to PMC8442742 (Pain, 2021):

How the values were obtained:
[1] = test system: p-c-Jun in the DRGs; experiment: p-c-Jun in DRG after one treatment cycle; type: in vivo, mice; conditions: one cycle of cisplatin 2.3 mg/kg i.p. for 5 days
[2] = test system: intraepidermal nerve fibers; experiment: IENF density in hind paw skin; type: in vivo, mice; conditions: two cycles of cisplatin 2.3 mg/kg i.p.
[3] = test system: DRG transcriptome; experiment: RNA sequencing of DRG; type: in vivo, mice; conditions: cisplatin alone vs controls, one cycle
[4] = test system: C57Bl/6 mice; experiment: Y maze spontaneous alternation test; type: in vivo; conditions: two cycles of cisplatin
[5] = test system: C57Bl/6 mice; experiment: Puzzle box test; type: in vivo; conditions: two cycles of cisplatin; cardboard plug, trials 8–11
[6] = test system: NCI-H69 human lung cancer xenograft; experiment: NCI-H69 lung cancer xenograft, tumor volume; type: in vivo, BALB/c nude mice; conditions: cisplatin 4 mg/kg i.p. every 4 days, 6 doses
[7] = test system: synaptosomes; conditions: two cycles of cisplatin

## N.N.[Cl][Pt][Cl] [cisplatin]
[1]
  p-c-Jun in DRG: significantly, but modestly, induced p-c-Jun
[2]
  IENF density in the hind paws: reduced IENF density
[3]
  number of genes with changed expression: 1337
[4]
  Y maze alternation rate: significant decrease in the alternation rate
[5]
  time to enter the goal box with difficult obstacle: required significantly more time to enter the goal box
[6]
  tumor growth: significantly reduced tumor growth
[7]
  synaptosomal MRC and SRC: reduced maximal respiratory capacity and spare respiratory capacity
